From US12178791B2, “Haloallylamine sulfone derivative inhibitors of lysyl oxidases and uses thereof” (Syntara Limited, priority 2018, dated 2024)
Where a name gives a salt, the structure may show the parent alone.

Legend:
Assay type in all cases: biochemical
[1] = target: Human recombinant SSAO/VAP-1 (Homo sapiens (Human), UniProt Q16853); assay: Inhibition of human recombinant SSAO/VAP-1; settings: 30 min preincubation at 37 °C, benzylamine 600 μM; read-out: SSAO/VAP-1 Activity IC50
Method: Human recombinant SSAO/VAP-1 amine oxidase activity was determined using the coupled colorimetric method as described for monoamine oxidase, copper-containing amine oxidases and related enzymes (Holt A. and Palcic M., A peroxidase-coupled continuous absorbance plate-reader assay for flavin monoamine oxidases, copper-containing amine oxidases and related enzymes. Nat Protoc 2006; 1: 2498-2505). Briefly, a cloned cDNA template corresponding to residues 34-763 of human SSAO/VAP-1, and incorporating a mouse Ig kappa (κ) signal sequence, N-terminal flag epitope tag and tobacco etch virus (TEV) cleavage site, was assembled in a mammalian expression vector (pLO-CMV) by Geneart AG. This vector containing human SSAO/VAP-1 residues was transfected into CHO-Kl glycosylation mutant cell line, Lec 8. A clone stably expressing human SSAO/VAP-1 was isolated and cultured in large scale. Active human SSAO/VAP-1 was purified and recovered using immunoaffinity chromatography. This was used as the source for SSAO/VAP-1 activity. A high-throughput colorimetric assay was developed using either 96 or 384 well format. Briefly, in a standard 96 well plate assay 50 μL of purified human SSAO/VAP-1 (0.25 μg/mL) in 0.1 M sodium phosphate buffer (pH 7.4) was added into each well. Test compounds were dissolved in DMSO and tested in a Concentration Response Curve (CRC) with 4-11 data points, typically in the micromolar or nanomolar range after incubation with human SSAO/VAP-1 for 30 min at 37° C. After 30 min incubation, 50 μL of the reaction mixture containing 600 μM benzylamine (Sigma Aldrich), 120 μM Amplex Red (Sigma Aldrich) and 1.5 U/mL horseradish peroxidase (Sigma Aldrich) prepared in 0.1 M sodium phosphate buffer (pH 7.4) were added to the corresponding well. The fluorescence unit (RFU) was read every 2.5 min for 30 min at 37° C. excitation 565 nm and emission 590 (Optima; BMG labtech). The slope of the kinetics for each well was calculated using MARS data analysis software (BMG labtech) and this value was used to deduce the IC50 value (Dotmatics).

LOXL2 = LOXL2 (Homo sapiens (Human), UniProt Q9Y4K0); assay: LOXL2 inhibition, Amplex Red oxidation assay; settings: 30 min preincubation at 37 °C, putrescine substrate
Source text: (§1) Lysyl oxidase (LOX) is an extracellular copper dependent enzyme which oxidizes peptidyl lysine and hydroxylysine residues in collagen and lysine residues in elastin to produce peptidyl alpha-aminoadipic-delta-semialdehydes. […] There are five LOX family members; these are LOX, LOXL1, LOXL2, LOXL3 and LOXL4. LOX and LOXL family members can be acquired as recombinant active proteins from commercial sources, or extracted from animal tissues like bovine aorta, tendons, pig skin; or prepared from cell cultures. The inhibitory effects of the compounds of the present invention were tested against the given LOX-LOXL preparation using a method based on the detection of hydrogen peroxide with an Amplex Red oxidation assay (Zhou et al. A stable nonfluorescent derivative of resorufin for the fluorometric determination of trace hydrogen peroxide: applications in detecting the activity of phagocyte NADPH oxidase and other oxidases. Anal. Biochem. 1997; 253, 162-168). The assay was developed using either 384 or 96 well format. Briefly, in a standard black, clear bottom 384 well plate assay 25 μL of a dilution of any of the isoenzymes and orthologues in 1.2 M urea, 50 mM sodium borate buffer (pH 8.2) were added into each well in the presence of 1 μM mofegiline and 0.5 mM pargyline (to inhibit SSAO and MAO-B and MAO-A, respectively; not necessary if the enzyme is from a recombinant or purified form). Test compounds were dissolved in DMSO and tested in a Concentration Response Curve (CRC) with 11 data points, typically in the micromolar or nanomolar range after incubation with the enzyme for 30 min at 37° C. Twenty five μL of a reaction mixture containing twice the KM concentration of putrescine (Sigma Aldrich, e.g. 20 mM for LOX, or 10 mM for LOXL2 and LOXL3), 120 μM Amplex Red (Sigma Aldrich) and 1.5 U/mL horseradish peroxidase (Sigma Aldrich) prepared in 1.2 M urea, 50 mM sodium borate buffer (pH 8.2) were then added to the corresponding wells. The above volumes were doubled in the case of 96 wells plate. The fluorescence (RFU) was read every 2.5 min for 30 min at […] 37° C., excitation 565 nm and emission 590 (Optima; BMG labtech). The slope of the kinetics for each well was calculated using MARS data analysis software (BMG labtech) and this value was used to deduce the IC50 value (Dotmatics).

Bovine LOX = Bovine LOX (Bos taurus (Bovine), UniProt P33072); assay: LOX inhibition, Amplex Red oxidation assay; settings: 30 min preincubation at 37 °C, putrescine substrate
Source text: as §1, with “Test compounds were dissolved in DMSO and tested in a Concentration Response Curve (CRC) with 11 data points, typically in the micromolar or nanomolar range after incubation with the enzyme for 30 min at 37° C.” left out

Sequence of LOXL2 (Q9Y4K0 26-774): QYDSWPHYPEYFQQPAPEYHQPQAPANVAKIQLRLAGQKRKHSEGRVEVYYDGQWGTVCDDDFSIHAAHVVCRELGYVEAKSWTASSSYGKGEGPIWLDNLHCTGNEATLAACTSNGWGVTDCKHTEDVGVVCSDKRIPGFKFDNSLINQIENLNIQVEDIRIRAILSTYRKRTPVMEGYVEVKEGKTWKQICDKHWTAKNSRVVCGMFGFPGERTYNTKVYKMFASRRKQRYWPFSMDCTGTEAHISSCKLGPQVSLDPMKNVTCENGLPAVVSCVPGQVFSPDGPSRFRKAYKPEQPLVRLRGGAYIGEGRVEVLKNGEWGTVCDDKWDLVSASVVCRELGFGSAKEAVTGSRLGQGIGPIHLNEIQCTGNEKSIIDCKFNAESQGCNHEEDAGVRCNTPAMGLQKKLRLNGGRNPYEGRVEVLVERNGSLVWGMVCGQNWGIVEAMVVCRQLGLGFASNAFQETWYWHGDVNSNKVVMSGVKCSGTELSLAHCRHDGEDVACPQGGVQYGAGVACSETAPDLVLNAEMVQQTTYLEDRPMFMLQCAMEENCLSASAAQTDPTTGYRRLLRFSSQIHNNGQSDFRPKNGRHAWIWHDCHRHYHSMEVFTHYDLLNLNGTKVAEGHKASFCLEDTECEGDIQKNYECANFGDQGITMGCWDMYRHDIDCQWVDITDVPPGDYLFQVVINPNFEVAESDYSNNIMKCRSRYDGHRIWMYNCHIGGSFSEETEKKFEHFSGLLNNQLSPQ
Sequence of Bovine LOX (P33072 170-418): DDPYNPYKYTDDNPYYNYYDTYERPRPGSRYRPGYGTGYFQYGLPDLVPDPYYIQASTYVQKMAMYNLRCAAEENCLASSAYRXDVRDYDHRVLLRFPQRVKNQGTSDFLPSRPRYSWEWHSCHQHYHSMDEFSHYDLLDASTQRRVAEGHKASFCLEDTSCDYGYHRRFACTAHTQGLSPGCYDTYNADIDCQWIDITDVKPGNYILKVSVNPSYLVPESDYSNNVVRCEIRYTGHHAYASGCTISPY
Sequence of Human recombinant SSAO/VAP-1 (Q16853 34-763): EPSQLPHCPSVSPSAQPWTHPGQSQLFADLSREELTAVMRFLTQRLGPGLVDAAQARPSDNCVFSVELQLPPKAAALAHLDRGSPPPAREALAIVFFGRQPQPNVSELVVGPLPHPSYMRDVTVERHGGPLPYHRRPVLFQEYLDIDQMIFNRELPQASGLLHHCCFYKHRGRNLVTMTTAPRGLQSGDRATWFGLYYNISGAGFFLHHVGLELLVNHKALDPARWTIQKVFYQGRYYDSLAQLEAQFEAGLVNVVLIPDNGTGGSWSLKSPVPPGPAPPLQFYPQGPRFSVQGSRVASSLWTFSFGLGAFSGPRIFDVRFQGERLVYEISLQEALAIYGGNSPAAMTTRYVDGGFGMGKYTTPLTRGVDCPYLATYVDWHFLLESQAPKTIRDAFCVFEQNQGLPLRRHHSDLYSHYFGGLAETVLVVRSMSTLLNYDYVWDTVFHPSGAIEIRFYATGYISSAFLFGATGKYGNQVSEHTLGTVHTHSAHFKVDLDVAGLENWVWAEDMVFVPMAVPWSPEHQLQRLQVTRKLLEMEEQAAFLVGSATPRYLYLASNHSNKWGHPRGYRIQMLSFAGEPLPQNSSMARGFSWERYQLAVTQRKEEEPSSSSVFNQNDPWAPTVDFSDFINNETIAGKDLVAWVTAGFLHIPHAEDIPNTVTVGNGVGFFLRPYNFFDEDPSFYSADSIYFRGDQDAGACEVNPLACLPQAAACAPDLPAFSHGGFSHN

Compound: [2H]c1nc2c(S(=O)(=O)C/C(F)=C/CN)c([2H])c([2H])c([2H])c2c([2H])c1[2H] [Compound 53, (Z)-3-fluoro-4-((quinolin-8-yl-d6)sulfonyl)but-2-en-1-amine dihydrochloride]
- IC50 [1]: > 30 µM

Compound: NC/C=C(\F)CS(=O)(=O)c1ccccc1F [Compound 37, (Z)-3-fluoro-4-(2-fluorophenylsulfonyl)but-2-en-1-amine hydrochloride]
- IC50 (LOXL2): < 1 µM
- IC50 (Bovine LOX): < 10 µM

Compound: CC(C)c1ccc(S(=O)(=O)C/C(F)=C/CN)cn1 [Compound 49, (Z)-3-fluoro-4-(6-isopropylpyridin-3-ylsulfonyl)but-2-en-1-amine dihydrochloride]
- IC50 (LOXL2): < 1 µM
- IC50 (Bovine LOX): < 10 µM

Compound: NC/C=C(\F)CS(=O)(=O)c1ccc(Cl)cc1Cl [Compound 25, (Z)-4-(2,4-dichlorophenylsulfonyl)-3-fluorobut-2-en-1-amine hydrochloride]
- IC50 (LOXL2): < 1 µM
- IC50 (Bovine LOX): < 10 µM

Compound: Cc1cc(S(=O)(=O)C/C(F)=C/CN)ccn1 [Compound 44, (Z)-3-fluoro-4-(2-methylpyridin-4-ylsulfonyl)but-2-en-1-amine dihydrochloride]
- IC50 (LOXL2): < 1 µM
- IC50 (Bovine LOX): < 10 µM

Compound: NC/C=C(\F)CS(=O)(=O)c1ccc(Cl)cc1 [Compound 27, (Z)-4-(4-chlorophenylsulfonyl)-3-fluorobut-2-en-1-amine hydrochloride]
- IC50 (LOXL2): < 1 µM
- IC50 (Bovine LOX): < 10 µM

Compound: Cc1nc2c(S(=O)(=O)C/C(F)=C/CN)cccc2s1 [Compound 50, (Z)-3-fluoro-4-((2-methylbenzo[d]thiazol-4-yl)sulfonyl)but-2-en-1-amine hydrochloride]
- IC50 (LOXL2): < 1 µM
- IC50 (Bovine LOX): < 10 µM
- IC50 [1]: > 30 µM

Compound: NC/C=C(\F)CS(=O)(=O)c1cccc(Cl)c1 [Compound 26, (Z)-4-(3-chlorophenylsulfonyl)-3-fluorobut-2-en-1-amine hydrochloride]
- IC50 (LOXL2): < 1 µM
- IC50 (Bovine LOX): < 10 µM

Compound: Cc1ccncc1S(=O)(=O)C/C(F)=C/CN [Compound 48, (Z)-3-fluoro-4-(4-methylpyridin-3-ylsulfonyl)but-2-en-1-amine dihydrochloride]
- IC50 (LOXL2): < 1 µM
- IC50 (Bovine LOX): < 10 µM

Compound: Cc1ncccc1S(=O)(=O)C/C(F)=C/CN [Compound 47, (Z)-3-fluoro-4-(2-methylpyridin-3-ylsulfonyl)but-2-en-1-amine dihydrochloride]
- IC50 (LOXL2): < 1 µM
- IC50 (Bovine LOX): < 10 µM

Compound: CC(C)c1ccc(S(=O)(=O)C/C(F)=C/CN)nc1 [Compound 34, (Z)-3-fluoro-4-(5-isopropylpyridin-2-ylsulfonyl)but-2-en-1-amine dihydrochloride]
- IC50 (LOXL2): < 1 µM
- IC50 (Bovine LOX): < 10 µM

Compound: Cc1cccc(S(=O)(=O)C/C(F)=C/CN)n1 [Compound 36, (Z)-3-fluoro-4-(6-methylpyridin-2-ylsulfonyl)but-2-en-1-amine dihydrochloride]
- IC50 (LOXL2): < 1 µM
- IC50 (Bovine LOX): < 10 µM

Compound: Cc1ccccc1S(=O)(=O)C/C(F)=C/CN [Compound 40, (Z)-3-fluoro-4-(o-tolylsulfonyl)but-2-en-1-amine hydrochloride]
- IC50 (LOXL2): < 1 µM
- IC50 (Bovine LOX): < 10 µM

Compound: NC/C=C(\F)CS(=O)(=O)c1cccc2ccccc12 [Compound 23, (Z)-3-fluoro-4-(naphthalen-1-ylsulfonyl)but-2-en-1-amine hydrochloride]
- IC50 (LOXL2): < 1 µM
- IC50 (Bovine LOX): < 10 µM
- IC50 [1]: > 30 µM

Compound: Cc1ccc(S(=O)(=O)C/C(F)=C/CN)nc1 [Compound 35, (Z)-3-fluoro-4-(5-methylpyridin-2-ylsulfonyl)but-2-en-1-amine dihydrochloride]
- IC50 (LOXL2): < 1 µM
- IC50 (Bovine LOX): < 10 µM

Compound: NC/C=C(\F)CS(=O)(=O)c1ccc(F)cc1 [Compound 39, (Z)-3-fluoro-4-(4-fluorophenylsulfonyl)but-2-en-1-amine hydrochloride]
- IC50 (LOXL2): < 1 µM
- IC50 (Bovine LOX): < 10 µM

Compound: Cc1cccc(S(=O)(=O)C/C(F)=C/CN)c1 [Compound 41, (Z)-3-fluoro-4-(m-tolylsulfonyl)but-2-en-1-amine hydrochloride]
- IC50 (LOXL2): < 1 µM
- IC50 (Bovine LOX): < 10 µM

Compound: Cc1cccnc1S(=O)(=O)C/C(F)=C/CN [Compound 43, (Z)-3-fluoro-4-(3-methylpyridin-2-ylsulfonyl)but-2-en-1-amine dihydrochloride]
- IC50 (LOXL2): < 1 µM
- IC50 (Bovine LOX): < 10 µM

Compound: NC/C=C(\F)CS(=O)(=O)c1ccccc1-c1ccccc1 [Compound 20, (Z)-4-(biphenyl-2-ylsulfonyl)-3-fluorobut-2-en-1-amine hydrochloride]
- IC50 (LOXL2): < 1 µM
- IC50 (Bovine LOX): < 10 µM

Compound: COc1ccccc1S(=O)(=O)C/C(F)=C/CN [Compound 22, (Z)-3-fluoro-4-(2-methoxyphenylsulfonyl)but-2-en-1-amine hydrochloride]
- IC50 (LOXL2): < 1 µM
- IC50 (Bovine LOX): < 10 µM

Compound: Cc1[nH]c2c(S(=O)(=O)C/C(F)=C/CN)cccc2c1C [Compound 52, (Z)-4-((2,3-dimethyl-1H-indol-7-yl)sulfonyl)-3-fluorobut-2-en-1-amine hydrochloride]
- IC50 (LOXL2): < 1 µM
- IC50 (Bovine LOX): < 10 µM

Compound: CC(C)c1ccccc1S(=O)(=O)C/C(F)=C/CN [Compound 21, (Z)-3-fluoro-4-(2-isopropylphenylsulfonyl)but-2-en-1-amine hydrochloride]
- IC50 (LOXL2): < 1 µM
- IC50 (Bovine LOX): < 10 µM

Compound: Cc1ccc(S(=O)(=O)C/C(F)=C/CN)cc1 [Compound 42, (Z)-3-fluoro-4-(p-tolylsulfonyl)but-2-en-1-amine hydrochloride]
- IC50 (LOXL2): < 1 µM
- IC50 (Bovine LOX): < 10 µM

Compound: NC/C=C(\F)CS(=O)(=O)c1ccc2ccccc2c1 [Compound 24, (Z)-3-fluoro-4-(naphthalen-2-ylsulfonyl)but-2-en-1-amine hydrochloride]
- IC50 (LOXL2): < 1 µM
- IC50 (Bovine LOX): < 10 µM
